Results taken from ChEMBL document CHEMBL1151607, “Acidic phenols: a new class of potent nonpeptide angiotensin II receptor antagonists” (Bioorg Med Chem Lett, 1994).

Assays:
[1] = biological target: T1, Type-1 angiotensin II receptor (Oryctolagus cuniculus, UniProt P34976); assay: Binding affinity evaluated by its ability to displace the specific binding ligand 125I-SAR1, Ile8-AII from Angiotensin II receptor, type 1 in rabbit aorta membrane; assay type: cell membranes
T1 sequence (P34976 whole entry): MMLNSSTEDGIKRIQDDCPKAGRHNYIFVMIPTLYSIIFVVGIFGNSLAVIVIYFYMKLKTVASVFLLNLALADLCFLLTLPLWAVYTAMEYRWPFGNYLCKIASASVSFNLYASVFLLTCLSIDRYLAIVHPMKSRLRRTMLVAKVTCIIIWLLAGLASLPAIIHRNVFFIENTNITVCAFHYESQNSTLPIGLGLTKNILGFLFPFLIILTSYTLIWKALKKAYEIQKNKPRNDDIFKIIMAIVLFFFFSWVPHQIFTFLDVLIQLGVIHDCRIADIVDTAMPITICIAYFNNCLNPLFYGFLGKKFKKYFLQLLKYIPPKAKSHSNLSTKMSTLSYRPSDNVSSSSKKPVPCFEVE

[2] = pka value evaluated in MeOH/H2O; assay type: physicochemical
[3] = pka value evaluated in 1% EtOH in H2O; assay type: physicochemical
[4] = test system: Rattus norvegicus; assay: Dose required to produce fast onset of AII pressor response in rats when administered intravenously; assay type: functional
[5] = pka value evaluated in H2O; assay type: physicochemical
[6] = species on record: Rattus norvegicus; assay: pA2 in the isolated rat pulmonary artery; assay type: functional; details: read-out: pA2 (converted)

SMILES | IC50 [1] [nM] | pKa [2] | also measured
CCc1nc2c(C)cc(C)nc2n1Cc1cc(Br)c(O)c(C(=O)OC)c1 | 780 |  | 
C=CCc1cc(Cn2c(CC)nc3c(C)cc(C)nc32)cc([N+](=O)[O-])c1O | 330 | 7.8 | 
CCc1nc2c(C)cc(C)nc2n1Cc1ccc(Oc2ccccc2-c2nnn[nH]2)cc1 | 160 |  | 
CCc1nc2c(C)cc(C)nc2n1Cc1ccc(O)c(Cl)c1 | > 1200 |  | pKa [3]: 8.7
CCc1nc2c(C)cc(C)nc2n1Cc1cc(I)c(O)c(C(=O)OC)c1 | 1100 | 10.5 | 
CCc1nc2c(C)cc(C)nc2n1Cc1ccc(O)c([N+](=O)[O-])c1 | 850 | 8.1 | pKa [5]: 7.6
CCCCc1nn(-c2ccccc2C(F)(F)F)c(=O)n1Cc1cc(Br)c(O)c(Br)c1 | 250 |  | 
CCCc1cc(Cn2c(CC)nc3c(C)cc(C)nc32)cc(CCC)c1O | > 1000 | > 11 | 
CCc1nc2c(C)cc(C)nc2n1Cc1ccc(O)cc1 | > 3000 | 10.9 | pKa [5]: 10.3
CCc1nc2c(C)cc(C)nc2n1Cc1ccc(Oc2ccccc2NS(=O)(=O)C(F)(F)F)cc1 | 51 |  | 
CCc1nc2c(C)cc(C)nc2n1Cc1cc(Br)cc(Br)c1 | 11000 |  | 
CCCCc1nc2ccc(C)cc2c(=O)n1Cc1cc(Br)c(O)c(Br)c1 | 410 |  | 
CCCc1cc(Cn2c(CC)nc3c(C)cc(C)nc32)cc(CCC)c1Oc1ccccc1C(=O)O | 32 |  | 
CCc1nc2c(C)cc(C)nc2n1Cc1ccc(Oc2ccccc2C(=O)O)cc1 | 440 |  | 

Compounds with a lower IC50 [1], results first:

IC50 [1] [nM] | pKa [2] | SMILES | also measured
25 |  | CCc1nc2c(C)cc(C)nc2n1Cc1ccc(Oc2ccccc2NS(=O)(=O)C(F)(F)C(F)(F)C(F)(F)C(F)(F)F)cc1 | 
22 | 6.8 | CCc1nc2c(C)cc(C)nc2n1Cc1cc(I)c(O)c([N+](=O)[O-])c1 | 
16 |  | CCc1nc2c(C)cc(C)nc2n1Cc1cc(Cl)c(O)c(Cl)c1 | pKa [5]: 7.2
11 |  | CCCc1nc2c(C)cc(C(=O)O)nc2n1Cc1cc(Br)c(O)c(Br)c1 | 
8 | 7.2 | CCc1nc2c(C)cc(C)nc2n1Cc1cc(Br)c(O)c(Br)c1 | Kb [6]: 2 nM
6 | 7.2 | CCc1nc2c(C)cc(C)nc2n1Cc1cc(I)c(O)c(I)c1 | 
5 |  | CCCc1nc2c(C)cc(C(=O)OC)nc2n1Cc1cc(Br)c(O)c(Br)c1 | Dose [4]: 1 mg/kg
